Measurements: paper PMC12066708 (Communications Biology, 2025)

Molecular target: T1, Kell (Homo sapiens, UniProt P23276)
T1 sequence (P23276 1-732): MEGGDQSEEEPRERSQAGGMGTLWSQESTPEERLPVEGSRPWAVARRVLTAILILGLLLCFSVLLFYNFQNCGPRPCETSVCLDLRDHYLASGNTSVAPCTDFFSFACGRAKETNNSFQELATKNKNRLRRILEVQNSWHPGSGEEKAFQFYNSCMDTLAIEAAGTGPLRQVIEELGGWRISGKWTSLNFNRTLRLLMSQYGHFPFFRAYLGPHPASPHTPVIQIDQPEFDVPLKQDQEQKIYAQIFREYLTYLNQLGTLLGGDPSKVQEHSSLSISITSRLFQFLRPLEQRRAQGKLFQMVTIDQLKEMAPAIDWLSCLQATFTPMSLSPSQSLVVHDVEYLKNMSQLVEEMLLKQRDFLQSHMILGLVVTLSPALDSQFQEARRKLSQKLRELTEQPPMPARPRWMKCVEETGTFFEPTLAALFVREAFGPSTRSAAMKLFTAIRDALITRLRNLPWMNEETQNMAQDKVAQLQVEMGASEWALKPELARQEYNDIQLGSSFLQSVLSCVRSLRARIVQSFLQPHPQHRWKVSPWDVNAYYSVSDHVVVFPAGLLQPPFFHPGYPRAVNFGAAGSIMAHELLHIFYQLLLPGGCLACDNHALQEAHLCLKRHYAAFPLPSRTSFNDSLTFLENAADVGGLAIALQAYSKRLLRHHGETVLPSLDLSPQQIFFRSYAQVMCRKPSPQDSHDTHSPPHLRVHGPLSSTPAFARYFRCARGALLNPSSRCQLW
Assay: microscale thermophoresis
Format: binding

Kd: 33 µM
SMILES: O=C(O)CNC(=O)C(CS)Cc1ccccc1 (stereo not shown) [thiorphan]
